Assay results as given in patent US11072602B2, “Antidiabetic heterocyclic compounds” (Merck Sharp & Dohme Corp., priority 2016, dated 2021).
Like-named read-outs stand apart in the source and are kept apart here.

Target: T1, human GPR40 (Homo sapiens, UniProt O14842)
T1 construct: expressed in transfected cells
Assay: Inositol Phosphate Turnover (IP1) Assay 2
Type: cell-based
Experimental: Human GPR40 stable cell-lines were generated in HEK cells. The expression plasmids were transfected using lipofectamine (Life Technologies) following manufacturer's instructions. Stable cell-lines were generated following drug selection and single cell cloning.
The assay is performed in 384-well format. HEK cells stably expressing human GPR40 are plated at 15,000 cells per well in growth medium (DMEM/10% fetal calf serum). Cell plates are then incubated 16 hours at 37 degrees in a 5% CO2 incubator.
Measurement of Inositol Phosphate Turnover (IP1) is performed using the CisBio IP-One kit (Part number 62IPAPEB). After the 16 hour incubation, the cells are washed with HEPES buffer and 10 ul of stimulation buffer (prepared as described in the kit) is added to each well. In a separate plate, compounds are diluted in DMSO (400-fold over the final concentration in the assay well) and 25 nl is acoustically transferred to the appropriate well in the assay cell plate. The plates are then incubated for 60 minutes at 37 degrees. 10 ul of detection buffer (also prepared as described in the IP-One kit) is added to each well and the plates are incubated for 60 minutes in the dark. The plates are then read in a Perkin Elmer EnVision or equivalent reader able to measure FRET. Fluorescent ratio of emission at 665 and 620 nm is then converted to IP1 concentration by back calculating from an IP1 standard curve prepared at the time of the assay.

[1] = HEK cells stably expressing human GPR40, 15,000 cells per well, CisBio IP-One kit, read-out: Human IP1 (nM), Inositol Phophate Turnover (IP1) Assay 2 EC50 values
[2] = HEK cells stably expressing human GPR40, read-out: EC50 values in the Inositol Phophate Turnover (IP1) Assay 2

T1 sequence (O14842 whole entry): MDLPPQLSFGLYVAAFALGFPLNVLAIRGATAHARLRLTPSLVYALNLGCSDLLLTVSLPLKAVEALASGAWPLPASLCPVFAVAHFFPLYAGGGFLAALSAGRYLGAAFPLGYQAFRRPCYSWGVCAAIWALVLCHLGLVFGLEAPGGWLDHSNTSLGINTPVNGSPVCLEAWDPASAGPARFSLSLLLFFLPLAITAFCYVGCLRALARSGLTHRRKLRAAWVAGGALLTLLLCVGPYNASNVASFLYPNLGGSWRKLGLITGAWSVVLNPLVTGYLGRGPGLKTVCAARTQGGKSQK

Structure (SMILES): C[C@H](C(=O)O)[C@H](c1ccc2c(c1)OC(C1CC3(C1)CN(c1ncccc1C(F)(F)F)C3)CC2)C1CC1 (single isomer, unassigned) [Example 1, (2S,3R)-3-cyclopropyl-2-methyl-3-((R or S)-2-(2-(3-(trifluoro-methyl)pyridin-2-yl)-2-azaspiro[3.3]heptan-6-yl)chroman-7-yl)propanoic Acid]
- EC50 [1]: 141 nM
- EC50 [2]: < 6500 nM

Structure (SMILES): C[C@H](C(=O)O)[C@H](c1ccc2c(c1)OC(C1CC3(C1)CN(c1ncccc1C(F)(F)F)C3)CC2)C1CC1 (single isomer, unassigned) [Example 2, (2S,3R)-3-cyclopropyl-2-methyl-3-((R or S)-2-(2-(3-(trifluoromethyl)pyridin-2-yl)-2-azaspiro[3.3]heptan-6-yl)chroman-7-yl)propanoic Acid]
- EC50 [1]: 156 nM

Structure (SMILES): C[C@H](C(=O)O)[C@H](c1ccc2c(c1)OC(C1[C@@H]3COC[C@H]1CN(Cc1cc(C(F)(F)F)ccc1C(F)(F)F)C3)CC2)C1CC1 (stereo partly drawn) [Example 40, (2S,3R)-3-(2-((1R,5S)-7-(2,5-bis(trifluoromethyl)benzyl)-3-oxa-7-azabicyclo[3.3.1]nonan-9-yl)chroman-7-yl)-3-cyclopropyl-2-methylpropanoic acid]
- EC50 [1]: 38.5 nM
- EC50 [2]: < 6500 nM
